In patent US11999727B2 (Tango Therapeutics, Inc., priority 2020, dated 2024):

Tests used:
PRMT5 [1] = target: T1, PRMT5 (Homo sapiens, UniProt O14744); test: PRMT5 biochemical IC50 assay with no cofactor; details: PRMT5, no cofactor; read-out: No Cofactor/ rel IC50
T1 construct: purchased Viva (custom protein)
Text: Table 1 indicates IC50 values (μM) against PRMT5 for exemplary compounds in the presence of SAM as cofactor, with no cofactor, and with MTA as cofactor, respectively (columns 4-6). […] Ki values can be calculated from the IC50 values as described in the Examples section. As detailed in the Examples section, for the assay performed in the presence of SAM, IC50=Ki×1.5 (Ki=IC50/1.5).

[2] = test system: HAP1 MTAP-deleted cell line; test: Viability assay, MTAP-deleted cell line; format: cell-based; details: Homo sapiens, HAP1, viability, HAP1 MTAP-deleted cell line; read-out: HAP1 MTAP deleted viability
Text: Table 1 additionally indicates IC50 values in a viability assay for the MTAP-deleted cell line (column 10), indicating the effect of treatment with compound on cell survival.

[3] = test system: HAP1 MTAP-intact cell line; test: SDMA in-cell western assay, HAP1 MTAP-intact; format: cell-based; details: Homo sapiens, HAP1, SDMA in-cell western, HAP1 MTAP-intact; read-out: MTAP HAP1 intact IC50
Procedure, shortened: (§1)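 Compounds were tested in HAP1 cells differing only in MTAP status (endogenous expression versus null). Cellular SDMA levels were then measured by in-cell western, giving an IC50 in each background.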

PRMT5 [4] = target: T1, PRMT5; test: PRMT5 biochemical IC50 assay with SAM as cofactor; details: PRMT5, SAM as cofactor; read-out: SAM IC50
[5] = test system: HAP1 MTAP-deleted cell line; test: SDMA in-cell western assay, HAP1 MTAP-deleted; format: cell-based; details: for IC50: Homo sapiens, HAP1, SDMA in-cell western, HAP1 MTAP-deleted, read-out: HAP 1 MTAP deleted IC50; for MTAP intact/deleted ratio: IC50 ratio HAP1 MTAP-intact / HAP1 MTAP-deleted, SDMA in-cell western
Procedure, shortened: as §1

PRMT5 [6] = target: T1, PRMT5; test: PRMT5 biochemical IC50 assay with MTA as cofactor; details: PRMT5, MTA as cofactor; read-out: MTA IC50

T1 sequence (O14744 whole entry): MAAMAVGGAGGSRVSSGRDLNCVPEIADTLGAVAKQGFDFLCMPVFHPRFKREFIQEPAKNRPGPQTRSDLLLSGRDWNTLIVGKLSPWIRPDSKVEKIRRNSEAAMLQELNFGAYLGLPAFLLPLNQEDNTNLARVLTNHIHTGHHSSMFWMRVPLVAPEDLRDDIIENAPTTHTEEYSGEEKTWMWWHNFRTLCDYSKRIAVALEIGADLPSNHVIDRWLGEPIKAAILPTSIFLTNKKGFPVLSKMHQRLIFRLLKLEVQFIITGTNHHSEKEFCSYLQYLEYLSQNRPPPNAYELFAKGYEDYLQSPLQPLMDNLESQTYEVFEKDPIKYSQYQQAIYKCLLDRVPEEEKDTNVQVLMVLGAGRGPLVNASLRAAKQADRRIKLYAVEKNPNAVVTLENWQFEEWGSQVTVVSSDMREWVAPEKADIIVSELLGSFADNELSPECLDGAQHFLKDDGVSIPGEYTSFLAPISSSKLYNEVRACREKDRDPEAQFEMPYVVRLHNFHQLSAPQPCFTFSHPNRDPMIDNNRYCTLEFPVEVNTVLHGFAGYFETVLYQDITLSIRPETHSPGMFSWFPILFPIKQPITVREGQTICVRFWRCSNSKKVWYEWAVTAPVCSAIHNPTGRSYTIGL
T1 sequence (Q9BQA1 whole entry partner): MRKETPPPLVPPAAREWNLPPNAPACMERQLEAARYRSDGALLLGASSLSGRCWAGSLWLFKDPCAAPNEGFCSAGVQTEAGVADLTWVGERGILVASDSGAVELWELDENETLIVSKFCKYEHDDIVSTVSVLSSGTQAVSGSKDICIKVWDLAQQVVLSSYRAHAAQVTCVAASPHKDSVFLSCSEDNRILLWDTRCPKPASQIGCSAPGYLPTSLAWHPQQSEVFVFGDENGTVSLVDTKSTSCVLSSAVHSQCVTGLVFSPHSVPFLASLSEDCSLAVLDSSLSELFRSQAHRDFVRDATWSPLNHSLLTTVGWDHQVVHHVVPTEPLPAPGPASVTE

## CCc1cc(NC(=O)C(=O)N2C[C@@H](C)CC[C@@H]2c2ccc3sc(CN(CC)C(C)C)nc3c2)cnc1N [Compound 1380, N-(6-amino-5-ethylpyridin-3-yl)-2-((2R,5S)-2-(2-((ethyl(isopropyl)amino)methyl)benzo[d]thiazol-5-yl)-5-methylpiperidin-1-yl)-2-oxoacetamide]
PRMT5 [1]
  IC50: < 50 nM
[2]
  IC50: < 1000 nM
[3]
  IC50: 100 to 1000 nM
PRMT5 [4]
  IC50: 50 to 500 nM
[5]
  IC50: < 100 nM
  MTAP intact/deleted ratio: A (an IC50 ratio greater than or equal to 10 fold)
PRMT5 [6]
  IC50: < 50 nM

## CCc1cc(NC(=O)C(=O)N2C[C@@H](C)CC[C@@H]2c2ccc3sc(C4CCN(C)CC4C)nc3c2)cnc1N (stereo partly drawn) [Compound 1382, N-(6-amino-5-ethyl-3-pyridyl)-2-[(5S)-2-[2-(1,3-dimethyl-4-piperidyl)-1,3-benzothiazol-5-yl]-5-methyl-1-piperidyl]-2-oxo-acetamide]
PRMT5 [1]
  IC50: < 50 nM
[2]
  IC50: < 1000 nM
[3]
  IC50: < 100 nM
PRMT5 [4]
  IC50: < 50 nM
[5]
  IC50: < 100 nM
  MTAP intact/deleted ratio: A (an IC50 ratio greater than or equal to 10 fold)
PRMT5 [6]
  IC50: < 50 nM

## CCc1cc(NC(=O)C(=O)N2C[C@@H](C)CC[C@@H]2c2ccc3sc(C4CCN(C)C4)nc3c2)cnc1N (some centres unmarked) [Compound 1383]
PRMT5 [1]
  IC50: < 50 nM
[2]
  IC50: < 1000 nM
[3]
  IC50: < 100 nM
PRMT5 [4]
  IC50: < 50 nM
[5]
  IC50: < 100 nM
  MTAP intact/deleted ratio: A (an IC50 ratio greater than or equal to 10 fold)
PRMT5 [6]
  IC50: < 50 nM

## CCc1cc(NC(=O)C(=O)N2C[C@@H](C)CC[C@@H]2c2ccc3sc([C@H]4CN(C)C(=O)CN4C)nc3c2)cnc1N [Compound 1385]
PRMT5 [1]
  IC50: < 50 nM
[2]
  IC50: < 1000 nM
[3]
  IC50: < 100 nM
PRMT5 [4]
  IC50: 50 to 500 nM
[5]
  IC50: < 100 nM
  MTAP intact/deleted ratio: A (an IC50 ratio greater than or equal to 10 fold)
PRMT5 [6]
  IC50: < 50 nM

## Cc1cc(NC(=O)C(=O)N2C[C@@H](C)CC[C@@H]2c2ccc3sc(CCN4CCOCC4)nc3c2)cnc1N [Compound 1387, N-(6-amino-5-methylpyridin-3-yl)-2-((2R,5S)-5-methyl-2-(2-(2-morpholinoethyl)benzo[d]thiazol-5-yl)piperidin-1-yl)-2-oxoacetamide]
PRMT5 [1]
  IC50: < 50 nM
[2]
  IC50: < 1000 nM
[3]
  IC50: < 100 nM
PRMT5 [4]
  IC50: 50 to 500 nM
[5]
  IC50: < 100 nM
  MTAP intact/deleted ratio: B (an IC50 ratio greater than or equal to 3 fold but lower than 10 fold)
PRMT5 [6]
  IC50: < 50 nM

## CCc1cc(NC(=O)C(=O)N2C[C@@H](C)CC[C@@H]2c2ccc3sc([C@H]4CCCN(C)C4)nc3c2)cnc1N [Compound 1388, N-(6-amino-5-ethylpyridin-3-yl)-2-((2R,5S)-5-methyl-2-(2-(1-methylpiperidin-3-yl)benzo[d]thiazol-5-yl)piperidin-1-yl)-2-oxoacetamide]
PRMT5 [1]
  IC50: < 50 nM
[2]
  IC50: < 1000 nM
[3]
  IC50: < 100 nM
PRMT5 [4]
  IC50: < 50 nM
[5]
  IC50: < 100 nM
  MTAP intact/deleted ratio: A (an IC50 ratio greater than or equal to 10 fold)
PRMT5 [6]
  IC50: < 50 nM

## CCc1cc(NC(=O)C(=O)N2C[C@@H](C)CC[C@@H]2c2ccc3sc(-c4ccnn4C)nc3c2)cnc1N [Compound 1389, N-(6-amino-5-ethylpyridin-3-yl)-2-((2R,5S)-5-methyl-2-(2-(1-methyl-1H-pyrazol-5-yl)benzo[d]thiazol-5-yl)piperidin-1-yl)-2-oxoacetamide]
PRMT5 [1]
  IC50: < 50 nM
[2]
  IC50: < 1000 nM
[3]
  IC50: 100 to 1000 nM
PRMT5 [4]
  IC50: 50 to 500 nM
[5]
  IC50: < 100 nM
  MTAP intact/deleted ratio: A (an IC50 ratio greater than or equal to 10 fold)
PRMT5 [6]
  IC50: < 50 nM

## CCc1cc(NC(=O)C(=O)N2C[C@@H](C)CC[C@@H]2c2ccc(N3CCN(C)CC3)c(C)c2)cnc1N [Compound 1390, N-(6-Amino-5-ethyl-3-pyridyl)-2-[(2R,5S)-5-methyl-2-[3-methyl-4-(4-methylpiperazin-1-yl)phenyl]-1-piperidyl]-2-oxo-acetamide]
PRMT5 [1]
  IC50: 50 to 500 nM
[2]
  IC50: < 1000 nM
[3]
  IC50: 100 to 1000 nM
PRMT5 [4]
  IC50: 50 to 500 nM
[5]
  IC50: < 100 nM
  MTAP intact/deleted ratio: A (an IC50 ratio greater than or equal to 10 fold)
PRMT5 [6]
  IC50: < 50 nM
